This note sets out measurements from US8143290B2, “Chemical compounds 572” (AstraZeneca AB, priority 2006, dated 2012).

For orientation: IC50 means the point on the concentration scale where inhibition reaches its midpoint.

The test addresses T1, recombinant human GR (Homo sapiens, UniProt P04150).
T1 construct: purchased Panvera/Invitrogen P2812 (kit P2893)
T1 sequence (P04150 1-777): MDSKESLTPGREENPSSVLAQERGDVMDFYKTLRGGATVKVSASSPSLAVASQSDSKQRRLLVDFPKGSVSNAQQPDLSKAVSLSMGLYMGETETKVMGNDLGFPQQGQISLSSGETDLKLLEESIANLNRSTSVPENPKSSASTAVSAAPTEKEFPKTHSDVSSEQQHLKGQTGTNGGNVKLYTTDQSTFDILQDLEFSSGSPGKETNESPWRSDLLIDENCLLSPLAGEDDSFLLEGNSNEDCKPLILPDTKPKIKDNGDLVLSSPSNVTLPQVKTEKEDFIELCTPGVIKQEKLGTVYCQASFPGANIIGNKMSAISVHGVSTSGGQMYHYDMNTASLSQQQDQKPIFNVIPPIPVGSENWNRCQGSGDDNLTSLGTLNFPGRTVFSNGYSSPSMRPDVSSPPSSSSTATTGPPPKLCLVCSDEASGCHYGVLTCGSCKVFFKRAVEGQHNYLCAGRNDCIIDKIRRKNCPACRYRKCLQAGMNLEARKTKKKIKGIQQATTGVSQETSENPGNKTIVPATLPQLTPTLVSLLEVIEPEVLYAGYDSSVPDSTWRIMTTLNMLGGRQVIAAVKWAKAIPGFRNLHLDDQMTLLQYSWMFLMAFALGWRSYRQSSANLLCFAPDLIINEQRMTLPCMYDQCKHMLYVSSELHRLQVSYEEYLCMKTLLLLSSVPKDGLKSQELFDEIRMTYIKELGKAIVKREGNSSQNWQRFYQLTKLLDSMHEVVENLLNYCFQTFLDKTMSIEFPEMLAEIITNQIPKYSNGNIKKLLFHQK
As to the kind of experiment: Human Glucocorticoid Receptor (GR) Assay, fluorescence polarization. The class given is binding. The settings on record: GS Red tracer, incubated 2 h at r.t., XLfit model 205, read-out: GRhuFL_FP_v2 Mean IC50. Put shortly:
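After 2 h dark incubation at r.t., polarization reported displacement of the GS Red tracer from recombinant GR, in buffer with phosphate, molybdate, EDTA, DTT and Stabilizing Peptide. Controls: dexamethasone (100%) and DMSO (0%).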
On the technique in general: Fluorescence polarisation rises when a labelled molecule tumbles more slowly, as on binding a larger partner.

Each structure is given as a SMILES string.

As to `C[C@H](NC(=O)C(F)(F)F)[C@H](Oc1ccc2c(cnn2-c2ccc(F)cc2)c1)c1ccc2c(c1)OCC2` [Example 307, N-((1R,2S)-1-(2,3-dihydrobenzofuran-6-yl)-1-(1-(4-fluorophenyl)-1H-indazol-5-yloxy)propan-2-yl)-2,2,2-trifluoroacetamide], the IC50 turned out to be 4.8 nM.

With `CCC[C@H](NC(=O)C(C)(C)C)[C@H](Oc1ccc2c(cnn2-c2ccc(F)cc2)c1)c1cccc(OC)c1` [Example 94, N-((1R,2S)-1-(1-(4-fluorophenyl)-1H-indazol-5-yloxy)-1-(3-methoxyphenyl)pentan-2-yl)pivalamide], the half-maximal inhibitory concentration (IC50) was determined as 3.1 nM.

As for `COc1cccc([C@@H](Oc2ccc3c(cnn3-c3ccc(F)cc3)c2)[C@H](C)N2C(=O)CNC2=O)c1` [Example 271, 3-[(1R,2S)-1-[1-(4-fluorophenyl)indazol-5-yl]oxy-1-(3-methoxyphenyl)propan-2-yl]imidazolidine-2,4-dione], the 50% inhibitory concentration (IC50) was 21 nM.

With `C[C@@H](NC(=O)C(F)(F)F)[C@H](COc1ccccc1)Oc1ccc2c(cnn2-c2ccc(F)cc2)c1` (single isomer, unassigned) [Example 69, 2,2,2-trifluoro-N-[2R*,3R*-3-[1-(4-fluorophenyl)indazol-5-yl]oxy-4-phenoxy-butan-2-yl]acetamide], the IC50 amounted to 76 nM.

`COc1ccc([C@@H](Oc2ccc3c(cnn3-c3ccc(F)cc3)c2)[C@H](C)NC(=O)c2ncc(C)s2)cc1F` [Example 198, N-[(1R,2S)-1-(3-fluoro-4-methoxy-phenyl)-1-[1-(4-fluorophenyl)indazol-5-yl]oxy-propan-2-yl]-5-methyl-1,3-thiazole-2-carboxamide]: the concentration for half-maximal inhibition (IC50) was found to be 3.8 nM.

On to `Cc1cc(C)c([C@@H](Oc2ccc3c(cnn3-c3ccc(F)cc3)c2)[C@H](C)NC(=O)C2(C)CC2)cc1C` [Example 224, N-[(1R,2S)-1-[1-(4-fluorophenyl)indazol-5-yl]oxy-1-(2,4,5-trimethylphenyl)propan-2-yl]-1-methyl-cyclopropane-1-carboxamide], for which the IC50 is 5.7 nM.

With `CCc1cccc([C@@H](Oc2ccc3c(cnn3-c3ccc(F)cc3)c2)[C@H](C)NC(=O)CO)c1` [Example 23, N-[(1R,2S)-1-(3-ethylphenyl)-1-[1-(4-fluorophenyl)indazol-5-yl]oxy-propan-2-yl]-2-hydroxy-acetamide], the half-maximal inhibitory concentration (IC50) turned out to be 3.2 nM.

For `C[C@H](NC(=O)C(C)(C)C)[C@H](Oc1ccc2c(cnn2-c2ccc(F)cc2)c1)c1ccc(C(C)(C)C)cc1` [Example 186, N-[(1R,2S)-1-[1-(4-fluorophenyl)indazol-5-yl]oxy-1-(4-tert-butylphenyl)propan-2-yl]-2,2-dimethyl-propanamide], the IC50 came to 6.6 nM.

`Cc1cc2c(cnn2-c2ccc(F)cc2)cc1O[C@H](c1ccccc1)[C@H](C)NC(=O)CO` [Example 64, N-[(1R,2S)-1-[1-(4-Fluorophenyl)-6-methyl-indazol-5-yl]oxy-1-phenyl-propan-2-yl]-2-hydroxy-acetamide]: the IC50 was found to be 3.9 nM.

With `Cc1ccc([C@@H](Oc2ccc3c(cnn3-c3ccc(F)cc3)c2)[C@H](C)NC(=O)C2(C)CC2)cc1C` [Example 211, N-[(1R,2S)-1-(3,4-dimethylphenyl)-1-[1-(4-fluorophenyl)indazol-5-yl]oxy-propan-2-yl]-1-methyl-cyclopropane-1-carboxamide], the IC50 is 3 nM.

For the compound `CC(=O)NC(C)C(Oc1cc2cnn(-c3ccc(F)cc3)c2cc1Cl)c1ccc(F)cc1` (racemic) [Example 100, N-[(1RS,2SR)-1-[6-chloro-1-(4-fluorophenyl)indazol-5-yl]oxy-1-(4-fluorophenyl)propan-2-yl]acetamide], the IC50 turned out to be 9.2 nM.

As to `CC(=O)N[C@@H](C)[C@H](Oc1cc2cnn(-c3ccc(F)cc3)c2cc1Cl)c1ccc(F)cc1` (single isomer, unassigned) [Example 101, N-[(1S*,2R*)-1-[6-chloro-1-(4-fluorophenyl)indazol-5-yl]oxy-1-(4-fluorophenyl)propan-2-yl]acetamide], the IC50 came to 15 nM.

As to `Cc1cc(F)ccc1[C@@H](Oc1ccc2c(cnn2-c2ccc(F)cc2)c1)[C@H](C)NC(=O)C(C)(C)C` [Example 179, N-[(1R,2S)-1-(4-fluoro-2-methyl-phenyl)-1-[1-(4-fluorophenyl)indazol-5-yl]oxy-propan-2-yl]-2,2-dimethyl-propanamide], the 50% inhibitory concentration (IC50) turned out to be 3.7 nM.

With `COc1cccc([C@@H](Oc2ccc3c(cnn3-c3ccc(F)cc3)c2)[C@H](C)NC(=O)C(=O)OC(C)(C)C)c1` [Example 75, tert-Butyl [(1R,2S)-1-[1-(4-fluorophenyl)indazol-5-yl]oxy-1-(3-methoxyphenyl)propan-2-yl]carbamoylformate], the half-maximal inhibitory concentration (IC50) was found to be 5.3 nM.

With `C[C@H](NC(=O)C(Cl)Cl)[C@H](Oc1ccc2c(cnn2-c2ccc(F)cc2)c1)c1ccccc1` [Example 39, 2,2-Dichloro-N-[(1R,2S)-1-[1-(4-fluorophenyl)indazol-5-yl]oxy-1-phenyl-propan-2-yl]acetamide], the 50% inhibitory concentration (IC50) amounted to 6.4 nM.

On to `Cc1ccc([C@@H](Oc2ccc3c(cnn3-c3ccc(F)cc3)c2)[C@H](C)NC(=O)C(C)(C)C)c(C)c1` [Example 176, N-[(1R,2S)-1-(2,4-dimethylphenyl)-1-[1-(4-fluorophenyl)indazol-5-yl]oxy-propan-2-yl]-2,2-dimethyl-propanamide], for which the IC50 turned out to be 4.9 nM.

In the case of `Cc1cnc(C(=O)N[C@@H](C)[C@H](Oc2ccc3c(cnn3-c3ccc(F)cc3)c2)c2ccc(F)c(F)c2)s1` [Example 193, N-[(1R,2S)-1-(3,4-difluorophenyl)-1-[1-(4-fluorophenyl)indazol-5-yl]oxy-propan-2-yl]-5-methyl-1,3-thiazole-2-carboxamide], the half-inhibitory concentration (IC50) turned out to be 6.5 nM.

With `CCSCc1ccc([C@@H](Oc2ccc3c(cnn3-c3ccc(F)cc3)c2)[C@H](C)NC(=O)CO)cc1` [Example 27, N-[(1R,2S)-1-[4-(ethylsulfanylmethyl)phenyl]-1-[1-(4-fluorophenyl)indazol-5-yl]oxy-propan-2-yl]-2-hydroxy-acetamide], the IC50 turned out to be 3.2 nM.

`CCCc1ccc([C@@H](Oc2ccc3c(cnn3-c3ccc(F)cc3)c2)[C@H](C)NC(=O)C(C)(C)C)cc1` [Example 188, N-[(1R,2S)-1-[1-(4-fluorophenyl)indazol-5-yl]oxy-1-(4-propylphenyl)propan-2-yl]-2,2-dimethyl-propanamide]: the half-inhibitory concentration (IC50) came to 7.3 nM.

Turning to `C[C@H](NC(=O)C(C)(C)C)[C@H](Oc1ccc2c(cnn2-c2ccc(F)cc2)c1)c1ccc(F)c(F)c1` [Example 172, N-[(1R,2S)-1-(3,4-difluorophenyl)-1-[1-(4-fluorophenyl)indazol-5-yl]oxy-propan-2-yl]-2,2-dimethyl-propanamide], the 50% inhibitory concentration (IC50) worked out at 4.3 nM.

For the compound `COc1c(C)cc([C@@H](Oc2ccc3c(cnn3-c3ccc(F)cc3)c2)[C@H](C)NC(=O)C2(C)CC2)cc1C` [Example 221, N-[(1R,2S)-1-[1-(4-fluorophenyl)indazol-5-yl]oxy-1-(4-methoxy-3,5-dimethyl-phenyl)propan-2-yl]-1-methyl-cyclopropane-1-carboxamide], the concentration for half-maximal inhibition (IC50) is 4.4 nM.

For the compound `COCC(=O)N[C@@H](C)[C@H](Oc1ccc2c(cnn2-c2ccc(F)cc2)c1)c1ccc(SC)cc1` [Example 9, N-[(1R,2S)-1-[1-(4-fluorophenyl)indazol-5-yl]oxy-1-(4-methylsulfanylphenyl)propan-2-yl]-2-methoxy-acetamide], the IC50 came out at 2 nM.

Consider `C[C@H](NC(=O)C(C)(C)F)[C@H](Oc1ccc2c(cnn2-c2ccc(F)cc2)c1)c1cccc(F)c1` [Example 243, 2-fluoro-N-[(1R,2S)-1-(3-fluorophenyl)-1-[1-(4-fluorophenyl)indazol-5-yl]oxy-propan-2-yl]-2-methyl-propanamide], for which the 50% inhibitory concentration (IC50) was determined as 5.5 nM.

In the case of `COc1ccc([C@@H](Oc2ccc3c(cnn3-c3ccc(F)cc3)c2)[C@H](C)NC(=O)C2(C)CC2)cc1F` [Example 217, N-[(1R,2S)-1-(3-fluoro-4-methoxy-phenyl)-1-[1-(4-fluorophenyl)indazol-5-yl]oxy-propan-2-yl]-1-methyl-cyclopropane-1 carboxamide], the IC50 amounted to 3.9 nM.

As to `COc1cccc([C@@H](Oc2ccc3c(cnn3-c3ccc(F)cc3)c2)[C@H](C)NC(=O)c2nccs2)c1` [Example 135, N-[(1R,2S)-1-[1-(4-fluorophenyl)indazol-5-yl]oxy-1-(3-methoxyphenyl)propan-2-yl]1,3-thiazole-2-carboxamide], the half-inhibitory concentration (IC50) turned out to be 3.1 nM.

Consider `Cc1ccc([C@@H](Oc2ccc3c(cnn3-c3ccc(F)cc3)c2)[C@H](C)NC(=O)C2(C)CC2)cc1F` [Example 213, N-[(1R,2S)-1-(3-fluoro-4-methyl-phenyl)-1-[1-(4-fluorophenyl)indazol-5-yl]oxy-propan-2-yl]-1-methyl-cyclopropane-1-carboxamide], for which the IC50 was found to be 4.4 nM.
